Measured values from doi:10.1101/2022.04.02.486822v1 (biorxiv, 2022).

Biological target: T1, EcGhrA (Escherichia coli, UniProt P75913)
T1 sequence (P75913 1-312): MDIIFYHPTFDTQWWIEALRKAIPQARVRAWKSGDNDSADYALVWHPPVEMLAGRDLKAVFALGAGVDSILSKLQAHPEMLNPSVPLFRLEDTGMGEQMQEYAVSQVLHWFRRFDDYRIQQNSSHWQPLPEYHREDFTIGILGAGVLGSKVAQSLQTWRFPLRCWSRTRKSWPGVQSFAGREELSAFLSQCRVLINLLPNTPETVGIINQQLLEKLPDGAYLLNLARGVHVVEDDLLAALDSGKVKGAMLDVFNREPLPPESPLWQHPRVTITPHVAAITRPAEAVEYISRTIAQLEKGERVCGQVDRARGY
Test: NADPH oxidation at […] nm, substrate inhibition fit
Format: biochemical
Conditions: 200 µM NADPH, 50 mM HEPES, pH 7.5, 22 °C

O=CC(=O)O [compound 6, glyoxylate]
KI: 1.5 ± 1.1 mM

O=C(O)CC(=O)C(=O)O [compound 7, oxaloacetate]
KI: 52 ± 15 mM
